Results taken from the NIST ThermoML archive (doi:10.1016/j.jct.2010.09.006).

Test: cn = amount concentration of the nth substance listed, in mol/dm3
Settings: 101 kPa, Liquid, Taylor dispersion method

[Cl][Ni][Cl] [nickel chloride (NiCl2)] + O
binary diffusion coefficient [m2/s]
Settings	c1 = 0	c1 = 0.001	c1 = 0.005	c1 = 0.01	c1 = 0.1
298.15 K	1.26e-09	1.23e-09	1.12e-09	1.04e-09	9.86e-10
310.15 K	1.4e-09	1.39e-09	1.37e-09	1.34e-09	1.29e-09
